Measurements published in patent US20210386791A1, “METHODS OF CELLULAR REPROGRAMMING” (TissueTech, Inc., priority 2018, published 2021).

Key:
Format in all cases: cell-based
[1] = system: human corneal fibroblasts (HCF); assay: Reversal of HCF to keratocytes on immobilized HC-HA/PTX3 with or without SB431542 or AMD3100
Experimental: A total of 86 human corneas from individuals aged 18-76 years and maintained at 4° C. in Optisol (Chiron Vision, Irvine, Calif.) for less than 7 days after death were obtained from the Florida Lions Eye Bank (Miami, Fla.) and handled according to the declaration of Helsinki. HCF were isolated and cultured. Briefly, the sheets of the epithelium and the endothelium were removed from corneas, the stroma sections were cut into cubes of approximately 1 mm3, incubated in 2 mg/ml collagenase for 16 h at 37° C., and then placed in a culture medium consisting of DMEM supplemented with 10% fetal bovine serum containing […]. The culture medium was refreshed twice a week. The cells cultured to passage 3 were used for all experiments. To reverse fibroblasts or myofibroblasts into keratocytes, fibroblasts or myofibroblasts were cultured on immobilized HC-HA/PTX3 in DMEM+10% FBS for 3 days using the samples from the cells on plastic and HA as the controls. Some of the cell cultures were extended to up to 7 days of culture to monitor the expression of α-SMA formation. Total RNAs were extracted using RNeasy Mini Kit (Qiagen) and reverse-transcribed using High Capacity Reverse Transcription Kit (Applied Biosystems). cDNA was amplified by real-time RT-PCR using specific primer-probe mixtures and DNA polymerase in Quant Studio 5 Real-time PCR System (Applied Biosystems). Real-time RT-PCR profile consisted of 10 min of initial activation at 95° C., followed by 40 cycles of 15 s denaturation at 95° C., and 1 min annealing and extension at 60° C. The genuine identity of each PCR product was confirmed by the size determination using 2% agarose gels followed by ethidium bromide staining together with PCR marker according to EC3 Imaging System (BioImaging System, Upland, Calif.). The samples of human corneal fibroblasts, myofibroblasts and corneal keratocytes were air-dried and fixed in 4% formaldehyde, pH 7.0, for 15 min at room temperature, rehydrated in PBS, incubated with 0.2% Triton X-100 for 15 min, and rinsed 3 times with PBS for 5 min each. […] After three washes with PBS, they were incubated with corresponding Alexa-Fluor-conjugated secondary IgG (all 1:100 dilution) for 60 min. The samples were then counterstained with Hoechst 33342 and analyzed in Zeiss LSM 700 confocal microscope (Thornhood, N.Y.). Corresponding mouse and rabbit sera were used as negative controls for primary monoclonal and polyclonal antibodies, respectively. Cell lysates were prepared in RIPA buffer and resolved on 4-15% (w/v) gradient acrylamide gels under denaturing and reducing conditions for Western blotting. The protein extracts were transferred to the nitrocellulose membrane, which was then blocked with 5% (w/v) fat-free milk in TBST [50 mM Tris-HCl, pH 7.5, 150 mM NaCl, 0.05% (v/v) Tween-20], followed by sequential incubation with the specific primary antibody against keratocan and its respective horseradish peroxidase (HRP)-conjugated secondary antibody using β-actin as the loading control. Immunoreactive proteins were detected with Western Lighting Chemiluminescence (PerkinElmer, Waltham, Mass.).

[2] = system: human corneal fibroblasts (HCF); assay: Timing course analysis of SDF1/CXCR4 and BMP signaling in HCF
[3] = system: P10 LNC (human limbal niche cells); assay: P10 LNC on coated MG with soluble HC-HA/PTX3 with or without AMD3100, LDN-193189 or BMP receptor siRNAs; conditions: for upregulation of CXCR4 transcript by soluble HC-HA/PTX3: with CXCR4 inhibitor
Experimental: Upon 80% confluence, P10 LNC cultured on coated Matrigel™ (MG) were pre-treated with 0.1% DMSO with or without 20 μg/mL AMD3100 or 100 nM LDN-193189 for 30 min before being trypsinized and seeded at 2×10^5/mL on coated MG in MESCM containing 20 μg/mL of AMD3100 or 100 nM LDN-193189 with 25 μg/mL soluble HC-HA/PTX3 for another 48 h. For the siRNA knockdown, 80% confluent P10 LNC on 6-well coated MG were subjected to transfection by mixing 200 μl of serum-free, antibiotic-free MESCM with 4 μL of HiPerFect siRNA transfection reagent (final dilution, 1:300) and 6 μl of 20 μM of scRNA or siRNAs for BMPR1A, BMPR1B, BMPR2, and ACVR1 at the final concentration of 100 nM, drop-wise, followed by culturing in 1 mL of fresh MESCM at 37° C. for 24 h before soluble HC-HA/PTX3 was added at a final concentration of 25 μg/mL in the MESCM medium.
RNA extract was reverse transcribed to cDNA with reverse-transcribed using High Capacity Reverse Transcription Kit (Applied Biosystems, Foster City, Calif.) using primers listed in Supplementary Table S3. The resultant cDNAs were amplified by specific TaqMan gene expression assay mix and universal PCR master mix in QuantStudio™ 5 Real Time PCR System (ThermoFisher, Santa Clara, Calif.) with real-time RT-PCR profile consisting of 10 min of initial activation at 95° C., followed by 40 cycles of 15 sec denaturation at 95° C., and 1 min annealing and extension at 60° C. The relative gene expression data were analyzed by the comparative CT method (MET). All assays were performed in triplicate. The results were normalized by glyceraldehyde 3-phosphate dehydrogenase (GAPDH) as an internal control.
Single cells of LNC at different passages were harvested with 0.05% trypsin and 1 mM EDTA at 37° C. for 10 min and prepared for cytospin using Cytofuge (StatSpin Inc., Norwood, Mass.) at 1000 rpm for 8 min. Cells were fixed with 4% formaldehyde, pH 7.0, for 15 min at room temperature, permeabilized with 0.2% Triton X-100 in PBS for 15 min and blocked with 2% bovine serum albumin (BSA) for 1 h before incubated with primary antibodies for 16 h at 4° C. After 3 washes with PBS, the corresponding Alexa Fluor-conjugated secondary IgG (all 1:100 dilution) were incubated for 60 min and 3 washing with PBS. After 3 washes with PBS, the second primary antibodies was incubated for 60 min and followed with the corresponding Alex Fluor-conjugated secondary IgG. The nucleus was counterstained with Hoechst 33342 before being analyzed with Zeiss LSM 700 confocal microscope (Carl Zeiss, Thornwood, N.Y.). Corresponding mouse and rabbit sera were used as negative controls for primary monoclonal and polyclonal antibodies, respectively.

[4] = system: human corneal fibroblasts (HCF); assay: P3 HCF on plastic with or without immobilized HA or HC-HA/PTX3, with or without TGFβ1: mRNA, ELISA, Western blot, immunostaining; conditions: with TGFβ1
Experimental: A total of 89 human corneas from individuals aged 18-76 years and maintained at 4° C. in Optisol (Chiron Vision, Irvine, Calif.) for less than 7 days after death were obtained from the Florida Lions Eye Bank (Miami, Fla.) and handled according to the declaration of Helsinki. HCF were isolated and cultured. Epithelial and endothelial cells were removed from corneas, the stroma was cut into cubes of approximately 1 mm^3, incubated in 2 mg/ml collagenase for 16 h at 37° C., and then placed in a culture medium consisting of Dulbecco's modified Eagle's medium (DMEM) supplemented with 10% fetal bovine serum containing […]. The culture medium was changed twice a week. The morphology of the cells was monitored by Nikon Eclipse TS 100 microscope (Melville, N.Y.). Cells cultured to passage 3 (P3) were used for all experiments.
Human corneal fibroblasts (P3) were seeded on plastics with or without immobilized HC-HA/PTX3 complex for 72 h in DMEM+10% FBS, then serum starved for 24 h and treated with or without TGFβ1 for 24 h before being harvested for mRNA quantitation or immunostaining. For determination of protein of TGFβ receptor or p75NTR, the cells were treated with or without TGF-β1 for 48 h before collection of protein samples because the protein expression lags behind mRNA expression. For TGF-β1 ELISA, the cells were treated with or without TGF-β1 for 24 h, and then cultured in the fresh medium for another 24 h. The supernatants were collected for TGFβ1 ELISA. For TGFβ2 and TGFβ3 ELISA, the cells were treated with or without TGFβ1 for 48 h. Certain HCF were seeded on glass in DMEM+10% FBS for 24 h, then in DMEM+ITS (insulin-transferrin-selenium) for 24 h, treated with/without PBS or hyaluronic acid (HA) or HC-HA/PTX3±TGFβ1 (10 ng/ml)±Marimastat (10 μM) or ±DAPT (10 μM) or ±both for 0, 5, 15, 30 and 45 minutes before being harvested for immunostaining of CD44-ICD, JNK1, Cyclin D1 and p75NTR and for 5 minutes before being harvested for Western blotting of cytoplasmic and nuclear CD44-ICD, active MT1-MMP, and active γ-secretase after compartmental separation of the cellular components.
Total RNAs were extracted using RNeasy Mini Kit and were reverse transcribed using High Capacity Reverse Transcription Kit (Applied Biosystems). cDNA obtained was amplified by real-time RT-PCR using specific primer-probe mixtures and DNA polymerase in 7000 Real-time PCR System (Thermo-Fisher Scientific, Carlsbad, Calif.). Real-time RT-PCR profile consisted of 10 minutes of initial activation at 95° C., followed by 40 cycles of 15 seconds denaturation at 95° C., and 1 min annealing and 1 min extension at 60° C. The genuine identity of each PCR product was confirmed by the size determination using 2% agarose gels followed by ethidium bromide staining together with PCR marker according to EC3 Imaging System (BioImaging System, Upland, Calif.).
The Quantikine Human ELISA Kits of TGFβs were used for determination of TGFβs following the manufacturer's instructions (R and D Systems, Minneapolis, Minn.).
HCF, induced human corneal endothelial cells (HCEC), and HCEC monolayer cultures were air-dried and fixed in 4% formaldehyde, pH 7.0, for 15 min at room temperature, rehydrated in PBS, incubated with 0.2% Triton X-100 for 15 min, and rinsed three times with PBS for 5 min each. After incubation with 2% BSA to block non-specific staining for 30 min, they were incubated with the desired first antibody (all at 1:50 dilution) for 16 h at 4° C. After three washes with PBS, they were incubated with corresponding Alexa-Fluor-conjugated secondary IgG (all 1:100 dilutions) for 60 min. The samples were then counterstained with Hoechst 33342 and analyzed with Zeiss LSM 700 confocal microscope (Thornhood, N.Y.). Corresponding mouse and rabbit sera were used as negative controls for primary monoclonal and polyclonal antibodies, respectively. […]

[5] = HCF on HC-HA/PTX3 with CXCR4 inhibitor
[6] = soluble HC-HA/PTX3 with AMD3100

## c1cc(CN2CCCNCCNCCCNCC2)ccc1CN1CCCNCCNCCCNCC1 [AMD3100]
[1]; [5]
  cell aggregation, mRNA overexpression of SDF1 and CXCR4, CXCR4 nuclear translocation: completely attenuated
  keratocan protein expression: blockade
  transcript expression of BMP4, BMP6, BMPR1A, BMPR1B, BMPR2 and nuclear translocation of pSMAD1/5: completely nullified
[2]; with AMD3100
  aggregation and expression of SDF1, CXCR4, BMP4 and BMP6 induced by HC-HA/PTX3: completely blocked
  nuclear translocation of CXCR4 and pSMAD1/5: eliminated
[3]; after addition of AMD3100
  immunostaining of SDF-1: became negative
[3]; [6]
  Pax6, p75NTR, NGF, Musashi-1, Msx-1 and FoxD3 transcripts: significant downregulation
  immunofluorescence staining pattern of CXCR4: reverted to that of 3D MG
  staining of pSmad1/5/8: deactivated to cytoplasmic staining
[3]; soluble HC-HA/PTX3 with AMD3100, throughout 48 h
  transcript levels of BMP2, BMP4 and BMP6: aborted
[3]; with AMD3100
  nuclear Pax6 staining promoted by soluble HC-HA/PTX3: aborted
[3]; with AMD3100 20 μg/mL, 60 min
  cell aggregation promoted by soluble HC-HA/PTX3: completed aborted
[3]; with AMD3100, 24 h
  upregulation of SDF-1 transcript by soluble HC-HA/PTX3: completely abolished
[3]; 24 h
  upregulation of CXCR4 transcript by soluble HC-HA/PTX3: significantly downregulated
[3]; 48 h
  upregulation of CXCR4 transcript by soluble HC-HA/PTX3: completely aborted

## c1ccc2c(-c3cnn4cc(-c5ccc(N6CCNCC6)cc5)cnc34)ccnc2c1 [LDN-193189]
[3]; BMP signaling suppressed
  transient nuclear translocation of CXCR4 and nuclear Pax6 staining: not affected
[3]; BMP signaling suppressed, compared to scRNA control
  cell aggregation by soluble HC-HA/PTX3: not affect
[3]; BMP signaling suppressed, throughout 48 h
  expression level of CXCR4 and SDF-1: no significant difference

## NC(=O)c1ccc(-c2nc(-c3ccc4c(c3)OCO4)c(-c3ccccn3)[nH]2)cc1 [SB431542]
[1]; HCF on HC-HA/PTX3 with BMP inhibitor
  BMP signaling and keratocan mRNA and protein expression: completely inhibited
[2]; HC-HA/PTX3 with SB431542
  aggregation, expression of SDF1 and CXCR4 and nuclear translocation of CXCR4: did not affect
[2]; with SB431542
  expression of BMP4 and BMP6 and nuclear translocation of pSMAD1/5 induced by HC-HA/PTX3: completely inhibited

## TGFβ1: exogenous transforming growth factor β1, 10 ng/ml challenge
[4]
  NC marker mRNA, p75NTR protein and p75NTR nuclear translocation: upregulated on plastic
